One may read the Kd as the concentration at which binding is half-saturated. Lower therefore signals a tighter complex.

Structures are written as SMILES.

The source of these data is paper PMC10487456, “Canagliflozin Inhibited the Activity of Hemolysin and Reduced the Inflammatory Response Caused by Streptococcus suis” (International Journal of Molecular Sciences, 2023).

Experiment [1] has as its target T1, SLY (hemolysin) (Streptococcus suis, UniProt Q55996). The experiment can be described thus: biochemical.
The target of experiment [2] is T1, SLY (hemolysin). As to the kind of experiment: biochemical. The settings on record: read-out: % inhibition at 16 μg/mL.

T1 sequence (Q55996 28-497 limits assumed): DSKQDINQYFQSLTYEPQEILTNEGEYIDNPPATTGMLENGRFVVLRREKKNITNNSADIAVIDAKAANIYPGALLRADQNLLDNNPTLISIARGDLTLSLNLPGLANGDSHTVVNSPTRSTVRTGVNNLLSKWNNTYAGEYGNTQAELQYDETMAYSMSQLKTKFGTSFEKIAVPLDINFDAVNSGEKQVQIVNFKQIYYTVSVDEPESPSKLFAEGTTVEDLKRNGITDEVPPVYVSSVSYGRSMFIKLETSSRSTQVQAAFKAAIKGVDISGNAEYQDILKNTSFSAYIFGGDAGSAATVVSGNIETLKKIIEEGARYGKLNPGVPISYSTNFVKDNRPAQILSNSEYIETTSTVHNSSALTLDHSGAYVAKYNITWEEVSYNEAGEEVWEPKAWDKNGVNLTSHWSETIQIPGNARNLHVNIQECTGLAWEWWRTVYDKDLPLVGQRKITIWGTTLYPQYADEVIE

In turn, `Cc1ccc([C@@H]2O[C@H](CO)[C@@H](O)[C@H](O)[C@H]2O)cc1Cc1ccc(-c2ccc(F)cc2)s1` [canagliflozin] came in with a Kd in experiment [1] of 900 nM. Further, the inhibition at 16 µg/mL in experiment [2] turned out to be 76%.
